Experimental data taken from PMC7469199, “Immunosuppressive Activities of Novel PLA2 Inhibitors from Xenorhabdus hominickii, an Entomopathogenic Bacterium” (Insects, 2020).
Where two headings read alike, the source gives them in different places.

What was measured:
[1] = system: hemocyte phagocytosis of S. exigua; assay: Phagocytosis assay with FITC-labeled E. coli in L5 larvae; format: in vivo, Spodoptera exigua; details: for Median Inhibitory Concentration (IC50), Phagocytosis: injected into L5 larvae with FITC-labeled E. coli
Protocol: For in vivo phagocytosis assay, test chemical (1 µL) and FITC-labeled E. coli (5 µL, 5 × 10^4 cells/µL) were injected to L5 larva. Hemolymph (50 µL) was collected at 15 min after injection and mixed with 50 µL of ice cold ACB. After centrifugation at 700 × g for 3 min at 4 °C, the supernatant plasma was replaced with 100 µL of TC-100 insect cell culture medium (Welgene, Daegu, Korea). Hemocyte suspension (10 µL) was placed onto a slide and over laid with 10 µL glycerol (50%, v/v). Hemocytes undergoing phagocytosis were determined by fluorescence-emitting cells under a fluorescence microscope (Leica, Wetzlar, Germany) at 40× magnification. For in vitro phagocytosis, hemocyte suspension and labeled bacteria mixture (30 µL) were incubated in a dark place for 1 h at room temperature. Hemocytes were then washed three times with PBS by centrifugation at 700× g for 2 min at 4 °C and finally resuspended in TC-100 medium. This hemocyte suspension was observed under the fluorescence microscope in FITC or DIC mode after forming monolayers on glass slides.

S. exigua larvae [2] = assay: Insecticidal activity by injection; format: in vivo, Spodoptera exigua; details: for Insecticidal Activities, Injection: median lethal dose by Probit analysis, S. exigua larvae
Protocol: All data for continuous variables were subjected to one-way analysis of variance (ANOVA) using PROG GLM in SAS program. Mortality data were subjected to arcsine transformation and used for ANOVA. Means were compared with the least significant difference (LSD) test at Type I error of 0.05. Median toxicity values such as median lethal dose (LD50), median lethal concentration (LC50), median lethal time (LT50), and median inhibition concentrations (IC50) were calculated by Probit analysis using EPA Probit Analysis Program, ver. 1.5 (U.S. Environmental Protection Agency, Washington, DC, USA). […]

S. exigua larvae [3] = assay: Feeding toxicity, leaf-dipping method; format: in vivo, Spodoptera exigua; details: for Insecticidal Activities, Feeding: median lethal concentration by Probit analysis, leaf-dipping
Protocol: (§1) For the virulence test of X. hominickii, 24 h-cultured cells (10^8 cfu/mL) were diluted with sterile PBS. After surface sterilization with 95% ethanol, each L5 larva was injected with 1 µL of test compound (1 µg/larva) along with bacterial suspension (10^2 cfu/larva). Injection was performed through the first abdominal proleg using a micro syringe. Injected larvae were incubated at room temperature individually in 9 cm Petri dishes. For oral toxicity assay of B. thuringiensis, a small piece (2 × 2 cm) of Chinese cabbage was dipped in 500 ppm of Bt or a mixture of Bt (500 ppm) with 500 ppm of test chemical for 5 min. After a brief (5 min) drying under a dark condition, the treated leaf was supplied to individual test larva in 9 cm Petri dish for 24 h at room temperature. After 24 h, larvae were fed with fresh cabbage leaves. Each treatment was replicated three times with 10 larvae per replication. […] Larvae were considered dead if they were unable to move in a coordinated manner when prodded with a blunt probe.
All data for continuous variables were subjected to one-way analysis of variance (ANOVA) using PROG GLM in SAS program. Mortality data were subjected to arcsine transformation and used for ANOVA. Means were compared with the least significant difference (LSD) test at Type I error of 0.05. Median toxicity values such as median lethal dose (LD50), median lethal concentration (LC50), median lethal time (LT50), and median inhibition concentrations (IC50) were calculated by Probit analysis using EPA Probit Analysis Program, ver. 1.5 (U.S. Environmental Protection Agency, Washington, DC, USA).
These compounds were also tested for their feeding toxicities using a leaf-dipping method.

rabbits = details: cited from earlier work
secretory PLA2 (sPLA2) = assay: Secretory PLA2 (sPLA2) activity; format: biochemical, Spodoptera exigua; details: for Median Inhibitory Concentrations (IC50), sPLA2: S. exigua, synthetic compounds
Protocol: (§2) To characterize PLA2 inhibition by test chemicals, activities of two different PLA2s [secretory PLA2 (sPLA2) and cytosolic PLA2 (cPLA2)] were assessed with methods described by Vatanparast et al..

cytosolic PLA2 (cPLA2) = assay: Cytosolic PLA2 (cPLA2) activity; format: biochemical, Spodoptera exigua; details: for Median Inhibitory Concentrations (IC50), cPLA2: S. exigua, synthetic compounds
Protocol: as §2

Sf9 cells = assay: Cytotoxicity test (MTT); format: cell-based; details: for Cytotoxicity (MIC, minimum inhibitory concentration): MTT, 24 h at 28 °C
Protocol: Cytotoxicity of each secondary metabolite was evaluated by 3-(4,5 dimethylthiazol-2-yl)-2,5-diphenyl tetrazolium bromide (MTT) assay according to the method described by Mollah et al.. with a slight modification. Briefly, Sf9 cells (1.2 × 10^4 cells in 200 μL of TC-100 medium) were seeded into each 96-well. After adding each test chemical (2.5 μL in DMSO), the plate was incubated at 28 °C for 24 h. Control cells were treated with 2.5 μL of DMSO. After 24 h incubation, 10 μL of MTT (5 mg/mL in PBS) was added to each well and cells were cultured for another 4 h at 28 °C. Formazan granules formed in viable cells were dissolved in 50 μL of DMSO. Absorbance was then measured at 540 nm using a microplate reader (Victor Multilabel Plate Reader, PerkinElmer, Waltham, MA, USA).

rats = details: cited from earlier work
[4] = system: hemocyte PLA2 of S. exigua; assay: Nonspecific (total) hemocyte PLA2 activity, pyrene-labeled phospholipid fluorometric assay; format: biochemical, Spodoptera exigua; details: for Median Inhibitory Concentrations (IC50), Total PLA2: hemocyte extract of S. exigua L5 larvae, synthetic compounds
Protocol: Hemocyte PLA2 activity was fluorometrically determined with a pyrene-labeled phospholipid substrate using a spectrofluorometer (VICTOR multi-label plate reader, PerkinElmer, Waltham, MA, USA) at excitation and emission wavelengths of 345 and 398 nm, respectively. For measuring PLA2 activity, hemolymph was collected from ~10 L5 larvae. Hemocytes and plasma were separated by centrifugation at 800× g for 3 min at 4 °C. Hemocytes were then homogenized in 500 µL of PBS with a polytron (Ultra-Turrax T8, Ika Laboratory, Funkentshort, Germany). After centrifugation at 14,000× g for 5 min at 4 °C, protein concentration of the supernatant was determined by Bradford assay using bovine serum albumin (BSA) as the standard. The reaction mixture was prepared in a 96-well microplate by adding 129 μL of 50 mM Tris buffer (pH 7.0), 2 μL of 1 M CaCl2, and 2 μL of 10% BSA into each well. A sample solution consisted of 5 μL of test bacterial metabolites and 10 μL of hemocyte enzyme extract ([…]). The plate was then incubated at room temperature for 30 min. Enzyme reaction was then initiated by adding pyrene-labeled PL substrate (2 μL) to the reaction mixture.

[5] = system: hemocyte nodule formation; assay: Nodulation assay after E. coli injection in L5 larvae; format: in vivo, Spodoptera exigua; details: for Median Inhibitory Concentration (IC50), Nodulation: injected into L5 larvae with E. coli, nodules counted after 8 h
Protocol: To assess nodule formation, immune challenge was performed by injecting 3 µL of Escherichia coli Top10 (10^4 cells/larva) (Invitrogen, Madison, WI, USA) through the abdominal proleg of L5 larvae using a microsyringe (Hamilton, Reno, NV, USA). After incubating at 25 °C for 8 h, test insects were dissected to count the number of melanized nodules under a stereo microscope (Stemi SV11, Zeiss, Jena, Germany) at 50× magnification. For chemical test, 1 µL aliquot of test chemical at different concentrations was injected into each larva along with E. coli. AA was injected at 10 μg per larva. Each treatment was independently replicated five times.

mushroom tyrosinase = target: mushroom tyrosinase; design: method as in PMID 14714727; details: cited from earlier work
mammals = details: oral administration; cited from earlier work
S. exigua larvae [6] = assay: Effect on pathogenicity of Bacillus thuringiensis (oral, leaf dipping); format: in vivo, Spodoptera exigua; details: cabbage leaf dipped in Bt 500 ppm mixed with inhibitor 500 ppm; 4 days after treatment
Protocol: as §1

S. exigua larvae [7] = assay: Effect on pathogenicity of X. hominickii (co-injection); format: in vivo, Spodoptera exigua; details: L5 larvae injected with Xh 10^2 cfu/larva along with inhibitor (5 µg/larva Fig. 7A; 2 µg/larva Fig. S6); 4 days after treatment
Protocol: as §1, with “After surface sterilization with 95% ethanol, each L5 larva was injected with 1 µL of test compound (1 µg/larva) along with bacterial suspension (10^2 cfu/larva).” left out

[8] = reference not printed with the value, next sentence cites ref 48

SMILES | Median Inhibitory Concentration (IC50), Phagocytosis [1] | Insecticidal Activities, Injection (S. exigua larvae [2]) | Insecticidal Activities, Feeding (S. exigua larvae [3]) | Median Inhibitory Concentrations (IC50), sPLA2 (secretory PLA2 (sPLA2)) | Median Inhibitory Concentrations (IC50), cPLA2 (cytosolic PLA2 (cPLA2)) | Cytotoxicity (MIC, minimum inhibitory concentration) (Sf9 cells) | Median Inhibitory Concentrations (IC50), Total PLA2 [4] | Median Inhibitory Concentration (IC50), Nodulation [5] | further results
CCCCNCCCC [DBA, dibutylamine] | 5.0 ± 0.58 c ng/larva | 38.77 ± 3.26 b µg/larva | 2969.46 ± 50.56 c µg/mL | 0.11 ± 0.02 de µg/mL | 0.19 ± 0.02 c µg/mL | 0.80 ± 0.03 b µg/mL | 0.18 ± 0.02 c µg/mL | 0.71 ± 0.05 d ng/larva | Acute dermal toxicity (LD50) (rabbits; [8]): 7680 mg/kg; Acute oral toxicity (LD50) (rats; [8]): 1890 mg/kg
N#Cc1ccc(C(=O)O)cc1 [4-cyanobenzoic acid] |  |  |  |  |  |  |  |  | IC50 (mushroom tyrosinase; diphenolase activity of mushroom tyrosinase, read-out: IC50 for diphenolase): 1.4 mM; IC50 (mushroom tyrosinase; monophenolase activity of mushroom tyrosinase, read-out: IC50 for monophenolase): 2.45 mM
CCCCC(CC)COC(=O)c1ccccc1C(=O)OCC(CC)CCCC (centres unmarked) [BEP, bis(2-ethylhexyl) phthalate] | 1.50 ± 0.22 d ^2 ng/larva | 34.88 ± 2.08 bc µg/larva | 2679.58 ± 60.58 µg·days/mL | 0.07 ± 0.01 ef µg/mL | 0.09 ± 0.01 µg·days/mL | 0.30 ± 0.01 d ^3 µg/mL | 0.17 ± 0.01 cd ^2 µg/mL | 1.0 ± 0.11 c ng/larva | Acute toxicity, dermal (rabbits; dermal application): 24 g/kg; Potency for inhibiting sPLA2 (in words) (secretory PLA2 (sPLA2); based on IC50 values): highly potent; Acute toxicity, oral (rats; oral administration): 30 g/kg
O=C1NC(=O)c2ccccc21 [PM, phthalimide] | 0.40 ± 0.05f ng/larva | 22.11 ± 2.69 d µg/larva | 2150.66 ± 50.07 f µg/mL | 0.17 ± 0.01 µg·days/mL | 0.04 ± 0.003 f µg/mL | 0.1 ± 0.01 f µg/mL | 0.05 ± 0.007 e µg/mL | 0.20 ± 0.02 f ng/larva | Inhibition of phagocytosis (in words) ([1]; S. exigua hemocytes): highly potent; Acute mammalian toxicity LD50 (mammals): > 5000 mg/kg; Killing of larvae after injection (in words) (S. exigua larvae [2]; individually injected to S. exigua larvae): most potent; Feeding (oral) toxicity (in words) (S. exigua larvae [3]; leaf-dipping method): most potent; Effect on B. thuringiensis insecticidal activity (S. exigua larvae [6]): significantly (p < 0.05) increased; Effect on X. hominickii pathogenicity / insecticidal activity (S. exigua larvae [7]): significantly (p < 0.05) increased; Potency for inhibiting cPLA2 (in words) (cytosolic PLA2 (cPLA2); based on IC50 values): highly potent; Concentration inducing cytotoxicity (Sf9 cells): less than 1 µg/mL; Inhibitory activity against hemocyte PLA2 (in words) ([4]; S. exigua hemocyte PLA2, extracts, fractions or synthetic compounds): most potent; Inhibition of nodule formation (in words) ([5]; S. exigua L5 larvae, E. coli challenge): high potency
